Experimental data from patent US20090170899A1, “Stimulators of 5-HT4 receptors and uses thereof” (priority 2004, published 2009).

Key:
Assay type in all cases: in vivo, rat
[1] = system: DRN 5-HT neurons; experiment: Extracellular single-unit recordings of DRN 5-HT neuron mean firing rate in anaesthetized rats; conditions: prucalopride 2.5 mg/kg, RS 67333 1.5 mg/kg; for enhancement of DRN 5-HT neuron mean firing rate vs control: s.c. osmotic minipumps; for increase of DRN 5-HT neuron firing rate with respect to controls: subacute i.p., 30 min before recordings
[2] = system: hippocampal CA3 pyramidal neurons; experiment: Response of hippocampal CA3 pyramidal neurons to WAY 100635 after 3-day treatments (5-HT1A tonus); conditions: for 5-HT1A-mediated inhibitory tonus in the hippocampus: Example 7, 3 days, prucalopride 2.5, citalopram 10, RS 67333 1.5 mg/kg/day
Method: FIGS. 8A to 8C. […] Single-cell extracellular recordings were performed in the CA3 region of chloral-hydrate anaesthetized rats by using multiple-barrel glass microelectrodes, combined with microiontophoretic pumps (with the central barrel used for recordings). Pyramidal neurons were identified according to the classical criteria (see Example 5, the experimental procedures). The 5-HT4 agonists were administered through the use of osmotic minipumps, inserted subcutaneously in the region of the back. Recordings were performed with the minipumps still in place. *p<0.05, **p<0.01, ***p<0.001 vs control, Dunnett's test. […] FIG. 8C is a typical example showing the response of a single pyramidal neuron to cumulative doses of WAY 100635, in a rat co-administered with RS 67333 (same treatment as above for FIG. 8A) and the 5-HT depleter para-chlorophenylalanine (pCPA; 150 mg/kg, i.p. once daily 72, 48 and 24 h before the recordings).
Drugs and Chemicals. The following compounds were used: GR 125487 sulphamate, prucalopride monohydrochloride, citalopram hydrobromide (gifts from Glaxo, Janssen and Lundbeck laboratories, respectively), RS 67333 hydrochloride (Tocris Cookson Inc., Ellisville, Mo., USA), WAY 100635 hydrochloride (Research Biochemicals, Natick, Mass., USA), pCPA methyl ester hydrochloride, BrdU (Sigma-Aldrich Canada, Oakville, Ontario, Canada). All compounds were diluted in distilled water. All drug dosages refer to the free base. For chronic treatments, prucalopride (2.5 mg/kg/day), RS 67333 (1.5 mg/kg/day) or the vehicle were delivered through osmotic minipumps (Alza, Palo Alto, Calif., USA), inserted subcutaneously in the region of the back under short-duration (≦5 min) halothane anesthesia. The 5-HT depleter PCPA was administered once daily at the dose of 150 mg/kg, i.p., 72, 48 and 24 h before the recordings. BrdU treatments consisted of two administrations per day (50 mg/kg, i.p. each, 8 h interval), starting from the day of minipump insertion until day 2 post-surgery.
Microiontophoresis and extracellular recordings from hippocampal CA3 pyramidal neurons. Recording and microiontophoresis were performed with five-barreled glass micropipettes broken back to 8-12 μm under microscope control. The central barrel was filled with the same solution as in the DRN and was used for extracellular unitary recordings. Pyramidal neurons were identified by their large amplitude (0.5-1.2 mV) and long-duration (0.8-1.2 ms) simple spikes alternating with complex spike discharges (Kandel and Spencer, 1961). The side barrels contained the following solutions: quisqualate (1.5 mM in 200 mM NaCl, pH 8), WAY 100635 (15 mM in 200 mM NaCl, pH 4), and 2 M NaCl used for automatic current balancing. Rats were mounted in the stereotaxic apparatus and the micropipettes were lowered at 4.2 mm lateral and 4.2 anterior to lambda into the CA3 sub-region of the dorsal hippocampus.
The firing activity of dorsal hippocampus pyramidal neurons was then recorded in the CA3 subfield, before and after systemic administration of the selective 5-HTLA antagonist WAY 100635.

[3] = system: CREB phosphorylation in the hippocampus; experiment: CREB and pCREB immunoreactivities in hippocampal tissue after 3-day treatment; conditions: 3 days, prucalopride 2.5, RS 67333 1.5 mg/kg/day; for pCREB/CREB ratio in hippocampal tissue: control 0.196±0.02
Method: Drugs and Chemicals. […] All compounds were diluted in distilled water. All drug dosages refer to the free base. […] BrdU treatments consisted of two administrations per day (50 mg/kg, i.p. each, 8 h interval), starting from the day of minipump insertion until day 2 post-surgery.

[4] = cumulative i.v. WAY 100635 500 μg/kg, 3-day prucalopride 2.5 mg/kg/day or RS 67333 1.5 mg/kg/day

Compound	enhancement of DRN 5-HT neuron mean firing rate vs control ([1]; 3-day continuous treatment)	enhancement of DRN 5-HT neuron mean firing rate vs control ([1]; 21-day continuous treatment)	increase of DRN 5-HT neuron firing rate with respect to controls [1]	CA3 pyramidal neuron activity after WAY 100635 ([2]; 3-day RS 67333, as restated in the Discussion)	quisqualate ejection currents required to obtain basal firing ([2]; 3-day treated groups, controls 0 to −2 nA)	5-HT1A-mediated inhibitory tonus in the hippocampus [2]	firing activity of CA3 pyramidal neurons after WAY 100635 ([2]; cumulative i.v. WAY 100635 200 μg/kg, 3-day RS 67333 1.5 mg/kg/day)	firing activity of CA3 pyramidal neurons after WAY 100635 ([2]; cumulative i.v. WAY 100635 300 μg/kg, 3-day RS 67333 1.5 mg/kg/day)	firing activity of CA3 pyramidal neurons after WAY 100635 [2, 4]	pCREB/CREB ratio in hippocampal tissue [3]	increase of pCREB/CREB ratio vs control [3]
CCCCN1CCC(CCC(=O)c2cc(Cl)c(N)cc2OC)CC1 [RS 67333, 1-(4-amino-5-chloro-2-methoxyphenyl)-3-(1-n-burtl-4-piperidinyl)-1-propanone]	79%	59%	66%	up to 440 % of pre-drug values	−4 to −6 nA	strong tonic inhibition	276 (±52) % of basal values	378 (±43) % of basal values	445 (±60) % of baseline	0.373±0.07	–
COCCCN1CCC(NC(=O)c2cc(Cl)c(N)c3c2OCC3)CC1 [prucalopride]	+50%	+36%	40%	–	–	modest inhibitory tonus	–	–	191 (±31) % of baseline	0.302±0.07	+54%
